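Grown in 96-well plates, cells were treated for 48 hours with each compound at five concentrations. Insufficient inhibition: endpoint recorded as highest concentration tested. Abbreviation: GI50, concentration required for 50% inhibition of growth.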 Calls of active or inactive are those of the source. Cut-off read from the data, not from the text of the source: active = GI50 up to about 1.1 µM and inactive = higher.
Assays:
Experiment in all cases: NCI anticancer screen, dose series, 48 h
786-0 = test system: 786-0
A549 = test system: A549
ACHN = test system: ACHN
CAKI-1 = test system: CAKI-1
CCRF-CEM = test system: CCRF-CEM
COLO 205 = test system: COLO 205
DLD-1 = test system: DLD-1
DMS-114 = test system: DMS-114
EKVX = test system: EKVX
HCC 2998 = test system: HCC 2998
HCT-116 = test system: HCT-116
HCT-15 = test system: HCT-15
HL-60 = test system: HL-60
HOP-18 = test system: HOP-18
HOP-62 = test system: HOP-62
HOP-92 = test system: HOP-92
HT-29 = test system: HT-29
IGROV-1 = test system: IGROV-1
K562 = test system: K562
KM12 = test system: KM12
LOX IMVI = test system: LOX IMVI
LXFL 529 = test system: LXFL 529
M14 = test system: M14
M19-MEL = test system: M19-MEL
MOLT-4 = test system: MOLT-4
Malme-3M = test system: Malme-3M
NCI-H226 = test system: NCI-H226
NCI-H23 = test system: NCI-H23
NCI-H460 = test system: NCI-H460
NCI-H522 = test system: NCI-H522
OVCAR-3 = test system: OVCAR-3
OVCAR-4 = test system: OVCAR-4
OVCAR-5 = test system: OVCAR-5
OVCAR-8 = test system: OVCAR-8
RPMI-8226 = test system: RPMI-8226
RXF 393 = test system: RXF 393
SF-268 = test system: SF-268
SF-295 = test system: SF-295
SF-539 = test system: SF-539
SK-MEL-28 = test system: SK-MEL-28
SK-MEL-2 = test system: SK-MEL-2
SK-MEL-5 = test system: SK-MEL-5
SK-OV-3 = test system: SK-OV-3
SN12C = test system: SN12C
SNB-19 = test system: SNB-19
SNB-78 = test system: SNB-78
SR = test system: SR
SW-620 = test system: SW-620
TK-10 = test system: TK-10
U-251 = test system: U-251
UACC-257 = test system: UACC-257
UACC-62 = test system: UACC-62
UO-31 = test system: UO-31
A498 = test system: A498
BT-549 = test system: BT-549
DU-145 = test system: DU-145
Hs-578T = test system: Hs-578T
MCF7 = test system: MCF7
MDA-MB-231 = test system: MDA-MB-231
MDA-MB-435 = test system: MDA-MB-435
MDA-N = test system: MDA-N
NCI/ADR-RES = test system: NCI/ADR-RES
PC-3 = test system: PC-3
SNB-75 = test system: SNB-75
T47D = test system: T47D

`CCOC(=O)C(=O)Nc1ccc(C)cc1C` was tested, and the GI50 (786-0) was > 100 µM (inactive), the GI50 (A549) was > 100 µM (inactive) and the GI50 (ACHN) was > 100 µM (inactive). For the same molecule, the GI50 (CAKI-1) was > 100 µM (inactive), the GI50 (CCRF-CEM) was > 100 µM (inactive) and the GI50 (COLO 205) was > 100 µM (inactive). For the same molecule, the GI50 (DLD-1) was > 100 µM (inactive), the GI50 (DMS-114) was > 100 µM (inactive) and the GI50 (EKVX) was > 100 µM (inactive). The GI50 (HCC 2998) was > 100 µM (inactive), the GI50 (HCT-116) was > 100 µM (inactive) and the GI50 (HCT-15) was over 100 µM. For the same molecule, the GI50 (HL-60) was > 100 µM (inactive), the GI50 (HOP-18) was > 100 µM (inactive) and the GI50 (HOP-62) was > 100 µM (inactive). For the same molecule, the GI50 (HOP-92) was > 100 µM (inactive), the GI50 (HT-29) was > 100 µM (inactive) and the GI50 (IGROV-1) was > 100 µM (inactive). For the same molecule, the GI50 (K562) was > 100 µM (inactive), the GI50 (KM12) was > 100 µM (inactive) and the GI50 (LOX IMVI) was > 100 µM (inactive). The GI50 (LXFL 529) was > 100 µM (inactive), the GI50 (M14) was > 100 µM (inactive) and the GI50 (M19-MEL) was > 100 µM (inactive). For the same molecule, the GI50 (MOLT-4) was > 100 µM (inactive), the GI50 (Malme-3M) was > 100 µM (inactive) and the GI50 (NCI-H226) was > 100 µM (inactive). The GI50 (NCI-H23) was > 100 µM (inactive), the GI50 (NCI-H460) was > 100 µM (inactive) and the GI50 (NCI-H522) was > 100 µM (inactive). The GI50 (OVCAR-3) was > 100 µM (inactive), the GI50 (OVCAR-4) was > 100 µM (inactive) and the GI50 (OVCAR-5) was > 100 µM (inactive). For the same molecule, the GI50 (OVCAR-8) was > 100 µM (inactive), the GI50 (RPMI-8226) was > 100 µM (inactive) and the GI50 (RXF 393) was > 100 µM (inactive). For the same molecule, the GI50 (SF-268) was > 100 µM (inactive), the GI50 (SF-295) was > 100 µM (inactive) and the GI50 (SF-539) was > 100 µM (inactive). The GI50 (SK-MEL-28) was > 100 µM (inactive), the GI50 (SK-MEL-2) was > 100 µM (inactive) and the GI50 (SK-MEL-5) was > 100 µM (inactive). The GI50 (SK-OV-3) was > 100 µM (inactive), the GI50 (SN12C) was > 100 µM (inactive) and the GI50 (SNB-19) was > 100 µM (inactive). The GI50 (SNB-78) was > 100 µM (inactive), the GI50 (SR) was > 100 µM (inactive) and the GI50 (SW-620) was > 100 µM (inactive). The GI50 (TK-10) was > 100 µM (inactive), the GI50 (U-251) was > 100 µM (inactive) and the GI50 (UACC-257) was > 100 µM (inactive). For the same molecule, the GI50 (UACC-62) was > 100 µM (inactive) and the GI50 (UO-31) was > 100 µM (inactive).

`Cc1c2cccc(Sc3ccccc3)c2c2c3c(cccc13)[S+](c1ccccc1)C2` (configuration not stated) was tested, and the GI50 (786-0) was 2.98 µM (inactive), the GI50 (A498) was 2.65 µM (inactive) and the GI50 (A549) was 2.88 µM (inactive). The GI50 (ACHN) was 4.04 µM (inactive), the GI50 (BT-549) was 2.14 µM (inactive) and the GI50 (CAKI-1) was 3.19 µM (inactive). For the same molecule, the GI50 (CCRF-CEM) was 1.77 µM (inactive), the GI50 (COLO 205) was 0.923 µM (active) and the GI50 (DU-145) was 3.78 µM (inactive). For the same molecule, the GI50 (EKVX) was 2.71 µM (inactive), the GI50 (HCC 2998) was 1.66 µM (inactive) and the GI50 (HCT-116) was 2.06 µM (inactive). The GI50 (HCT-15) was 10.4 µM, the GI50 (HL-60) was 0.935 µM (active) and the GI50 (HOP-62) was 1.89 µM (inactive). The GI50 (HOP-92) was 2.03 µM (inactive), the GI50 (HT-29) was 1.47 µM (inactive) and the GI50 (Hs-578T) was 2.74 µM (inactive). The GI50 (IGROV-1) was 2.34 µM (inactive), the GI50 (K562) was 0.408 µM (active) and the GI50 (KM12) was 1.16 µM (inactive). For the same molecule, the GI50 (LOX IMVI) was 1.72 µM (inactive), the GI50 (M14) was 2.08 µM (inactive) and the GI50 (MCF7) was 1.33 µM (inactive). For the same molecule, the GI50 (MDA-MB-231) was 2.16 µM (inactive), the GI50 (MDA-MB-435) was 1.75 µM (inactive) and the GI50 (MDA-N) was 2.28 µM (inactive). The GI50 (MOLT-4) was 1.65 µM (inactive), the GI50 (Malme-3M) was 1.8 µM (inactive) and the GI50 (NCI-H226) was 2.33 µM (inactive). For the same molecule, the GI50 (NCI-H23) was 1.82 µM (inactive), the GI50 (NCI-H460) was 1.58 µM (inactive) and the GI50 (NCI-H522) was 0.684 µM (active). For the same molecule, the GI50 (NCI/ADR-RES) was 28.6 µM (inactive), the GI50 (OVCAR-3) was 0.659 µM (active) and the GI50 (OVCAR-4) was 1.98 µM (inactive). The GI50 (OVCAR-5) was 3.03 µM (inactive), the GI50 (OVCAR-8) was 2.67 µM (inactive) and the GI50 (PC-3) was 2.06 µM (inactive). The GI50 (RPMI-8226) was 0.221 µM (active), the GI50 (RXF 393) was 3.86 µM (inactive) and the GI50 (SF-268) was 3.13 µM (inactive). The GI50 (SF-295) was 1.78 µM (inactive), the GI50 (SF-539) was 2.63 µM (inactive) and the GI50 (SK-MEL-28) was 2.58 µM (inactive). For the same molecule, the GI50 (SK-MEL-2) was 1.5 µM (inactive), the GI50 (SK-MEL-5) was 0.748 µM (active) and the GI50 (SK-OV-3) was 1.84 µM (inactive). The GI50 (SN12C) was 2.24 µM (inactive), the GI50 (SNB-19) was 1.73 µM (inactive) and the GI50 (SNB-75) was 1.94 µM (inactive). For the same molecule, the GI50 (SR) was 0.838 µM (active), the GI50 (SW-620) was 3.26 µM (inactive) and the GI50 (T47D) was 0.526 µM (active). For the same molecule, the GI50 (TK-10) was 2.67 µM (inactive), the GI50 (U-251) was 1.5 µM (inactive) and the GI50 (UACC-257) was 0.594 µM (active). The GI50 (UACC-62) was 1.66 µM (inactive) and the GI50 (UO-31) was 2.95 µM (inactive).
